A short description of series [1]: Stability of curcumin in human liver microsomes in the absence and presence of 1 μM xanthohumol (Example 3). The settings on record: both. The method, then: The objective of this study was to determine the stability of curcumin in human liver microsomes in the absence and presence of xanthohumol at a concentration of 1 μM.
(§1) Mixed-gender human liver microsomes (Lot #1210347) were purchased from XenoTech. The reaction mixture, minus cofactors, was prepared as described below. The test article was added into the reaction mixture at a final concentration of 1 μM. second experiment was also performed with 1 μM xanthohumol also present in the reaction mixture. The control compounds, testosterone and 7-hydroxycoumarin (7-HC), were run simultaneously with the test article in separate reactions. An aliquot of the reaction mixture (without cofactors) was equilibrated in a shaking water bath at 37° C. for 3 minutes. The reaction was initiated by the addition of cofactors, and the mixture was incubated in a shaking water bath at 37° C. Aliquots (100 μL) were withdrawn at 0, 10, 20, 30, and 60 minutes for the test article and 0, 10, 30, and 60 minutes for testosterone and 7-HC. All samples were immediately combined with 400 μL of ice-cold 50/50 acetonitrile/H2O containing 0.1% formic acid and internal standard to terminate the reaction. The samples were then mixed and centrifuged to precipitate proteins. All samples were assayed by LC-MS/MS using electrospray ionization. Analytical conditions are outlined in Appendix 1. The peak area response ratio (PARR) to internal standard was compared to the PARR at time 0 to determine the percent remaining at each time point. Half-lives were calculated using GraphPad software, fitting to a single-phase exponential decay equation.

Series [2] can be described thus: Stability of curcumin in human liver microsomes in the absence and presence of 10 μM xanthohumol (Example 4). The method, then: The objective of this study was to determine the stability of curcumin in human liver microsomes in the absence and presence of xanthohumol at a concentration of 10 μM, which is 10 fold higher than the previous study.
The objective of this study was to determine the stability of curcumin in human liver microsomes in the absence and presence of 10 μM xanthohumol.
as §1, with “μM. A” for “μM.”, “with 10” for “with 1”

[3] abbreviates: both, human, microsomes, Half-life.

This note sets out measurements from patent US20170333515A1, “COMPOSITIONS AND METHODS FOR ENHANCING THE METABOLIC ACTIVITY OR STABILITY OF CURCUMIN” (priority 2015, published 2017).

Regarding `C[C@]12CC[C@H]3[C@@H](CCC4=CC(=O)CC[C@@]43C)[C@@H]1CC[C@@H]2O` [Testosterone, testosterone], the intrinsic metabolic clearance (microsomal CLint) in series [1] worked out at 74 µL/min/mg; in series [2] (both, human, microsomes), 57.7 µL/min/mg. In series [2] (control compounds, human liver microsomes, separate reactions, Example 4), the half-life worked out at 24 min.

Consider `COc1cc(C=CC(=O)CC(=O)C=Cc2ccc(O)c(OC)c2)ccc1O` [Curcumin, 1,7-Bis(4-hydroxy-3-methoxyphenyl)-1,6-heptadiene-3,5-dione], for which the half-life at 1 μM was 4.4 min in series [1] (human, microsomes); below 10 min in series [2] (setting [3]); 4.7 min in series [2] (both, human, microsomes, Half-life (value in parentheses)). Besides, the microsomal CLint at 1 μM in series [1] (human, microsomes) is 313 µL/min/mg; in series [2] (both, human, microsomes, CLint) it was above 139 µL/min/mg; in series [2] (both, human, microsomes, CLint (value in parentheses)), 296 µL/min/mg. Further, in series [2] (both, human, microsomes, 1 μM), the half-life is listed as below 10 min.

As for `O=c1ccc2ccc(O)cc2o1` [7-HC, 7-hydroxycoumarin], the half-life in series [1] (human, microsomes) was 10 min; in series [2] (setting [3]), 12 min. Besides, the microsomal CLint was determined as 136 µL/min/mg in series [1] (human, microsomes) and 120 µL/min/mg in series [2] (both, human, microsomes, CLint).
